# According to patent US20210030758A1, “TREATMENT OF CANCERS HAVING DRIVING ONCOGENIC MUTATIONS” (G1 Therapeutics, Inc., priority 2018, published 2021):
# Key:
# [1] = dynamic vapor sorption experiment; format: physicochemical; details: exposure to 90% relative humidity
# [2] = thermal stress stability of solid form; format: physicochemical; details: 60° C. for 7 days
# Description: (§1) Form B is stable under thermal stress of 60° C. for 7 days. […] In one embodiment isolated Compound IA Form B is stable for at least about 6, 7, 8, 9, 10, 11, 12, 14, 16, 18, 20, 22, or 24 months.
# [3] = long-term stability study of solid form; format: physicochemical; details: 25° C. and 60% relative humidity
# Description: as §1
# NSCLC PDX models = assay: NSCLC PDX model panel, tumor growth inhibition; format: in vivo; details: for sensitivity of PDX models by genetic alteration: 100 mg/kg
# Description: NSCLC PDX models (n=60) were treated for up to 28 days with daily oral doses of vehicle or Compound 1 (100 mg/kg). Tumor growth inhibition (TGI) was calculated when tumors reached pre-specified tumor burden or on day 28. Genetic alterations from pre-treated samples were evaluated using FoundationOne. 58% TGI was used as the responder/non-responder cutoff for correlation analysis.
# [4] = system: EML4-ALK NSCLC PDX tumors (Champions PDX model CTG-0852); format: in vivo; details: single agents, oral once daily, after 60 days; Compound I 50 mg/kg, crizotinib 20 mg/kg
# [5] = system: LC2/ad non-small cell lung cancer cells expressing an oncogenic CCDC6-RET fusion; assay: LC2/ad cell proliferation by CellTiter-Glo; format: cell-based
# Description: LC2/ad non-small cell lung cancer cells expressing an oncogenic CCDC6-RET fusion were dosed with increasing concentrations of Compound 1, a RET inhibitor selected from pralsetinib (BLU-667) or agerafenib (RXDX-105), or RET inhibitor+300 nM Compound 1. Cell proliferation was measured by CellTiter-Glo after six days.
smiles,measurement,setting,value
CC(C)N1CCN(c2ccc(Nc3ncc4cc5n(c4n3)C3(CCCCC3)CNC5=O)nc2)CC1 [Compound IA Form B],solid form after dynamic vapor sorption,[1],remained in Form B
same,stability under thermal stress,[2],stable
same,"long-term stability, time stable",[3],at least 1 year
CC(C)N1CCN(c2ccc(Nc3ncc4cc5n(c4n3)C3(CCCCC3)CNC5=O)nc2)CC1 [Compound I],median TGI for adenocarcinoma,"NSCLC PDX models; NSCLC PDX models, adenocarcinoma, 100 mg/kg daily oral, up to 28 days",73%
same,median TGI for squamous cell carcinoma,"NSCLC PDX models; NSCLC PDX models, squamous cell carcinoma, 100 mg/kg daily oral, up to 28 days",66%
same,sensitivity of PDX models by genetic alteration,NSCLC PDX models; models with genetic alterations such as KRAS and EGFR,increased sensitivity
same,sensitivity of PDX models by genetic alteration,NSCLC PDX models; models with genetic alterations such as RB1,resistance
same,TGI,[4],87%
"CO[C@]1(C(=O)N[C@@H](C)c2ccc(-n3cc(F)cn3)nc2)CC[C@H](c2nc(C)cc(Nc3cc(C)[nH]n3)n2)CC1 [pralsetinib, Pralsetinib]",300 nM relative to the IC50 for cellular proliferation,[5],> 10 fold
